Experimental data reported in patent US9657351B2, “MRNA-based gene expression for personalizing patient cancer therapy with an MDM2 antagonist” (Hoffmann-La Roche Inc., priority 2013, dated 2017).
Values joined by “and” are separate entries in the source; they are usually repeats but may differ in a detail not shown here. Equal values may be shown once.

Legend:
P53 = conditions: NP22890; at C1D8; as previously reported; cited from earlier work
MDM2 mRNA [1] = experiment: NO21279 pharmacodynamic response, MDM2 mRNA by quantitative real-time PCR in leukemia cells; assay type: in vivo, human
Description: The performance of the MDM2 antagonist predictive mRNA response signature is tested in the clinical setting with specimens from the NO21279 leukemia trial (FIG. 1). 28 AML patients treated at the MTD are enrolled and completed pretreatment and C1D10 (cycle 1, day 10) sampling. […] The clinical endpoint in NO21279 was divided into 4 categories: Complete Response (CR), Morphologic Leukemia-Free State (MLFS), Hematologic Improvement (HI), and Progressive Disease (PD). Blood leukemia samples and bone marrow biopsy samples were collected at baseline screening, after a single dose (cycle 1 day 2, C1D2) and on last day of dosing (cycle 1, day 10, C1D10) and isolated via MACS® separation^11. The early pharmacodynamic effect of MDM2 antagonism in blood leukemia samples was assessed by measuring MDM2 RT PCR change between baseline and C1D10. Global gene expression profiles were generated for the peripheral blood leukemia cells and bone marrow biopsy samples obtained at baseline, C1D2 and C1D10.
MDM2 mRNA concentrations were assessed at Roche Molecular Systems by quantitative real-time PCR with 50 ng total RNA from MACs isolated leukemia cells from blood. TaqMan (Invitrogen, Carlsbad, Calif., USA) probes were designed to detect MDM2 mRNA and the reference mRNA, beta-glucuronidase, simultaneously using two different fluorescent reporters. Gene expression profiles were generated using Affymetrix U133 Plus 2.0 microarrays. Probset ID's for the each of the four genes on said U133 Plus 2.0 microarray are: 209375_s_at (for XPC); 205386_s_at and 211832_s_at (MDM2); 211692_s_at (BBC3); 207039_at and 211156_at (CDKN2A). […] The predictive patient signature score according to the present invention is then calculated using the following equation: patient signature score=GMDM2+GXPC+GBBC3−GCDKN2A. […] For example, for the patient data reported in Table 9 (Example 5), G is log 2 of the mRNA probeset expression of the relevant gene as measured with Affymetrix U133 Plus 2.0 microarrays.

MDM2 mRNA [2] = experiment: NO21279 blood cell gene expression on treatment, Affymetrix U133 Plus 2.0 microarray; assay type: in vivo, human; conditions: blood cell specimens, C1D10; IQR 1.71-5.00
Description: (§1) MDM2 mRNA concentrations were assessed at Roche Molecular Systems by quantitative real-time PCR with 50 ng total RNA from MACs isolated leukemia cells from blood. TaqMan (Invitrogen, Carlsbad, Calif., USA) probes were designed to detect MDM2 mRNA and the reference mRNA, beta-glucuronidase, simultaneously using two different fluorescent reporters. Gene expression profiles were generated using Affymetrix U133 Plus 2.0 microarrays. Probset ID's for the each of the four genes on said U133 Plus 2.0 microarray are: 209375_s_at (for XPC); 205386_s_at and 211832_s_at (MDM2); 211692_s_at (BBC3); 207039_at and 211156_at (CDKN2A). The “mRNA expression level” for one of the 4 genes according to the present invention is the accumulation of all counts falling into the range of exons of a gene (e.g. MDM2). […] The predictive patient signature score according to the present invention is then calculated using the following equation: patient signature score=GMDM2+GXPC+GBBC3−GCDKN2A. G in the formula stands for log 2 transformed mRNA expression levels as obtained from patient samples, for example blood leukemia or bone marrow biopsy samples. For example, for the patient data reported in Table 9 (Example 5), G is log 2 of the mRNA probeset expression of the relevant gene as measured with Affymetrix U133 Plus 2.0 microarrays.
(§2) Each intensity value is then log 2 transformed.

CDKN2A mRNA = experiment: as above; assay type: in vivo, human; conditions: C1D10; IQR 0.09-0.38
Description: as §1, §2

BBC3 mRNA = experiment: as above; assay type: in vivo, human; conditions: blood cell specimens, C1D10; IQR 1.13-1.99
Description: as §1, §2

MDM2 mRNA [3] = experiment: NP21280 solid tumor trial, tumor biopsy biomarker (MDM2 mRNA); assay type: in vivo, human; conditions: at C1D10, p=1.03×10−5
[4] = test system: CELLO/CACTEL human cancer cell lines; experiment: COMPOUND A In Vitro Assay, whole CELLO/CACTEL panel (IC50 vs mRNA signature score, TP53 status, tumor type); assay type: cell-based; conditions: for % Res: resistant IC50>=10; for % Sen: sensitive IC50<=1
Text: To generate an MDM2 antagonist therapy predictive signature, the response of MDM2 antagonist therapy in vitro with gene expression profiling (FIG. 1) is combined. A bank of 287 human cancer cell lines, collectively termed the Cell Lines for Oncology/Chugai ACcumulative Tumour EncycLopedia (CELLO/CACTEL), representing a broad array of diverse human cancer tumor types are subject to evaluation using several high-throughput genomic technology platforms. The mutational status of nucleic acids from each cell line is determined by exome sequencing. Messenger RNA (mRNA) expression levels at baseline, prior to MDM2 antagonist therapy, are obtained via RNA sequencing. MDM2 antagonist therapy COMPOUND A, sometimes referred to herein as RG7112, responses are obtained by assays known to those skilled in the art such as RNA sequencing and microarray measurement using Gene Chip Human Genome U133 Plus 2.0 Array. The MDM2 therapy responses are obtained by high throughout screening assays. Depending on their responses to COMPOUND A these cell lines are classified as either sensitive, defined as IC50<=1, or resistant, defined as IC50>=10.
281 cells are treated with MDM2 antagonists and the IC50 (therapy response) is generated. The cell lines span a broad range of tumor cell types of derivation.
To examine the specific prediction power of the mRNA signature score across the studied tumor types, and to make sure the prediction from the signature score is not confounded by tumor lineage, the signature score within each available tumor type in CELLO (Table 7, 7a) is examined.
The genes are ranked via their fold changes of responder cell lines to non-responder cell lines. Positive genes are defined as those with fold changes higher than 1; whereas negative genes are defined as those with fold changes less than 1. A multivariate logistic regression classifier is then built through a upward model selection procedure to maximize area under the receiver operating characteristic (ROC) curve with 10-fold cross-validation. The mode selection is implemented procedure through R package bestglm.

[5] = Adenocarcinoma cell lines, N 21
[6] = Adenocarcinoma, colorectal cell lines, N 7
[7] = Bone marrow cell lines, Number 5
[8] = Breast, mammary gland cell lines, Number 20
[9] = Carcinoma, gastric cell lines, N 5
[10] = Carcinoma, primary ductal cell lines, N 5
[11] = Carcinoma, squamous cell cell lines, N 12
[12] = Carcinoma, urinary bladder, transitional cell carcinoma (TCC) cell lines, N 7
[13] = Intestine, large, colon cell lines, Number 8
[14] = Leukaemia, acute myeloid cell lines, N 5
[15] = Lymphocyte cell lines, Number 6
[16] = Myeloma, multiple cell lines, N 5
[17] = Neuroblastoma (Glioma, neuroblastoma) cell lines, N 6
[18] = Urinary, bladder cell lines, Number 8

CCOc1cc(C(C)(C)C)ccc1C1=N[C@@](C)(c2ccc(Cl)cc2)[C@@](C)(c2ccc(Cl)cc2)N1C(=O)N1CCN(CCCS(C)(=O)=O)CC1 [COMPOUND A]
P53 concentration change from baseline (P53): significantly increase
median MDM2 mRNA expression increase over baseline (MDM2 mRNA [1]; C1D10 vs baseline, IQR 1.62-4.59, NO21279): 2.46 times
MDM2 mRNA (RT-PCR) fold change over baseline (C1D10), median increase (MDM2 mRNA [1]; all patients, IQR 1.62-4.59): 2.46x (IQR:
MDM2 mRNA (RT-PCR) fold change over baseline (C1D10) (MDM2 mRNA [1]; individual AML patients (no. 1-28), NO21279, blood leukemia cells, listed as RG7112): 2.23 fold and 5.67 fold and 5.05 fold and 9.66 fold and 1.79 fold and 23.00 fold and 2.01 fold and 1.72 fold and 5.07 fold and 3.20 fold and 4.35 fold and 1.27 fold and 2.51 fold and 0.96 fold and 1.69 fold and 2.26 fold and 1.52 fold and 3.88 fold and 2.65 fold and 5.11 fold and 9.46 fold and 1.00 fold and 1.59 fold and 1.67 fold and 3.00 fold
median MDM2 mRNA expression over baseline (MDM2 mRNA [2]): 2.37 times
median CDKN2A mRNA expression decreased over baseline (CDKN2A mRNA): 0.26 times
median BBC3 mRNA expression over baseline (BBC3 mRNA): 1.45 times
MDM2 mRNA expression change from baseline (MDM2 mRNA [3]): significantly increase
N (resistant) [4, 5]: 17
N (sensitive) [4, 5]: 4
N (resistant) [4, 6]: 5
N (sensitive) [4, 6]: 2
% Res [4, 7]: 60.0%
% Sen [4, 7]: 40.0%
% Res ([4]; Brain cell lines, Number 10): 50.0%
% Sen ([4]; Brain cell lines, Number 10): 50.0%
% Res [4, 8]: 85.0%
% Sen [4, 8]: 15.0%
N (resistant) ([4]; Carcinoma cell lines, N 8): 6
N (sensitive) ([4]; Carcinoma cell lines, N 8): 2
N (resistant) [4, 9]: 3
N (sensitive) [4, 9]: 2
N (resistant) [4, 10]: 4
N (sensitive) [4, 10]: 1
N (resistant) [4, 11]: 9
N (sensitive) [4, 11]: 3
N (resistant) [4, 12]: 6
N (sensitive) [4, 12]: 1
% Res [4, 13]: 62.5%
% Sen [4, 13]: 37.5%
N (resistant) [4, 14]: 3
N (sensitive) [4, 14]: 2
% Res ([4]; Lung cell lines, Number 41): 85.4%
% Sen ([4]; Lung cell lines, Number 41): 14.6%
% Res [4, 15]: 50.0%
% Sen [4, 15]: 50.0%
N (resistant) [4, 16]: 2
N (sensitive) [4, 16]: 3
N (resistant) [4, 17]: 3
N (sensitive) [4, 17]: 3
% Res ([4]; Ovary cell lines, Number 6): 66.7%
% Sen ([4]; Ovary cell lines, Number 6): 33.3%
% Res ([4]; Pancreas cell lines, Number 9): 100.0%
% Sen ([4]; Pancreas cell lines, Number 9): 0.0%
% Res ([4]; Skin cell lines, Number 6): 66.7%
% Sen ([4]; Skin cell lines, Number 6): 33.3%
% Res ([4]; Stomach cell lines, Number 8): 50.0%
% Sen ([4]; Stomach cell lines, Number 8): 50.0%
% Res [4, 18]: 75.0%
% Sen [4, 18]: 25.0%
